In ChEMBL document CHEMBL1149566, “Himbacine derived thrombin receptor (PAR-1) antagonists: SAR of the pyridine ring” (Bioorg Med Chem Lett, 2007):
The source made the active and inactive calls. No cut-off for these calls is given here.

Key:
[1] = molecular target: T1, Proteinase-activated receptor 1 (Homo sapiens) (UniProt P25116); assay: Displacement of [3H]haTRAP from human PAR1 receptor in platelet membrane at 1 uM; assay type: cell membranes
T1 sequence (whole entry): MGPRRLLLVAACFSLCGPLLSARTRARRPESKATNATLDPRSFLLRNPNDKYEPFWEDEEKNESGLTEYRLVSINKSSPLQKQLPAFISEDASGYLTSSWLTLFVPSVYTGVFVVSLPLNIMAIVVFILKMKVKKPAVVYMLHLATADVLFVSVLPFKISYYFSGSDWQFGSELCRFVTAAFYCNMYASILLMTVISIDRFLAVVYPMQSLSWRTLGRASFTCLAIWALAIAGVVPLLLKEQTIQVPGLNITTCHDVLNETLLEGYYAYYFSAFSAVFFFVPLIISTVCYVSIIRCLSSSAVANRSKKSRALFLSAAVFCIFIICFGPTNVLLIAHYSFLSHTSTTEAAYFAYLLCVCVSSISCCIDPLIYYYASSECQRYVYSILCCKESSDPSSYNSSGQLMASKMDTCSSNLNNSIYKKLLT

[2] = molecular target: T2, Proteinase-activated receptor 1 (Homo sapiens, UniProt P25116); assay: (§1) Displacement of [3H]haTRAP from human PAR1 receptor in platelet membrane; assay type: cell membranes
T2 sequence (P25116 whole entry): T1 sequence (whole entry)

[3] = Cmax in rat; assay type: ADME, organism-based; details: in vivo
[4] = AUC (0 to 4 hrs) in rat; assay type: ADME, organism-based; set-up: time < 4 hr; concentration or dose not given beside the values; details: plasma
Cannabinoid receptor 2 = Cannabinoid receptor 2 (Homo sapiens, UniProt P34972); assay: Binding affinity to cannabinoid CB2 receptor
Sequence of Cannabinoid receptor 2 (P34972 whole entry): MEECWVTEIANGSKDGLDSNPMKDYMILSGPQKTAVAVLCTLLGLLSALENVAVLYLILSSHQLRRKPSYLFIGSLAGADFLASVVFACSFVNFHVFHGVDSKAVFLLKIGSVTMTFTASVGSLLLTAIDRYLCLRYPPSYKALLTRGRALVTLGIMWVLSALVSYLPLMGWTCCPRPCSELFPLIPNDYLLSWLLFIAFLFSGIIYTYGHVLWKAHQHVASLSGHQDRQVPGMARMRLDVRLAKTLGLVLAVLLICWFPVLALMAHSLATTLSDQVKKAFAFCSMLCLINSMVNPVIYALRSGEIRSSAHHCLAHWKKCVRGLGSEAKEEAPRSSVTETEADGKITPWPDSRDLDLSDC

[5] = molecular target: T1, Proteinase-activated receptor 1 (Homo sapiens); assay: as §1; assay type: cell membranes
Cynomolgus monkey [6] = assay: Ex vivo inhibition of platelet aggregation in cynomolgus monkey at 3 mg/kg after 6 hrs; assay type: functional; details: Macaca fascicularis
Cynomolgus monkey [7] = assay: Ex vivo inhibition of platelet aggregation in cynomolgus monkey at 3 mg/kg up to 4 hrs; assay type: functional, organism-based; set-up: dose 3 mg/kg; details: Macaca fascicularis

## C[C@H]1OC(=O)[C@@H]2C=C3CCCC[C@H]3[C@H](/C=C/c3cnc4ccccc4c3)[C@H]12
[1]
  inhibition: 45%

## C[C@H]1OC(=O)[C@@H]2C[C@@H]3CCCC[C@H]3[C@H](/C=C/c3ccc(-c4cncn4C)cn3)[C@H]12
[2]
  IC50: 145 nM

## C[C@H]1OC(=O)[C@@H]2C[C@@H]3CCCC[C@H]3[C@H](/C=C/c3ccc(-c4ccc(Cl)s4)cn3)[C@H]12 (racemic)
[2]
  IC50: 36 nM
[3]
  Cmax: 343 ng/mL
[4]
  AUC(0-t) at 4 h: 1060 ng·h/mL

## CCc1nc(/C=C/[C@@H]2[C@@H]3[C@@H](C)OC(=O)[C@@H]3C=C3CCCC[C@H]32)ccc1-c1ccccc1
[2]
  IC50: 285 nM

## C[C@H]1OC(=O)[C@@H]2C[C@@H]3CCCC[C@H]3[C@H](/C=C/c3ccc(N4CCN(C)CC4)cn3)[C@H]12
[1]
  inhibition: 12%

## C[C@H]1OC(=O)[C@@H]2C[C@@H]3CCCC[C@H]3[C@H](/C=C/c3ccc(N4CCCC4)cn3)[C@H]12
[2]
  IC50: 29 nM
Cannabinoid receptor 2
  Ki: 487 nM

## C[C@H]1OC(=O)[C@@H]2C=C3CCCC[C@H]3[C@H](/C=C/c3ccc(-c4ccccc4)cn3)[C@H]12
[2]
  IC50: 43 nM

## C[C@H]1OC(=O)[C@@H]2C=C3CCCC[C@H]3[C@H](/C=C/c3ccccc3)[C@H]12
[5]
  Activity: inactive
[1]
  inhibition: 2%

## C[C@H]1OC(=O)[C@@H]2C[C@@H]3CCCC[C@H]3[C@H](/C=C/c3ccc(C4CCCC4)cn3)[C@H]12
[2]
  IC50: 115 nM

## C[C@H]1OC(=O)[C@@H]2C[C@@H]3CCCC[C@H]3[C@H](/C=C/c3ccc(N4CCN(c5ccccc5)CC4)cn3)[C@H]12
[2]
  IC50: 3300 nM

## C[C@H]1OC(=O)[C@@H]2C=C3CCCC[C@H]3[C@H](/C=C/c3cnccn3)[C@H]12
[1]
  inhibition: 1%

## Cc1cccc(/C=C/[C@@H]2[C@@H]3[C@@H](C)OC(=O)[C@@H]3C=C3CCCC[C@H]32)c1
[5]
  Activity: inactive

## C[C@H]1OC(=O)[C@@H]2C[C@@H]3CCCC[C@H]3[C@H](/C=C/c3ccc(-c4ccccn4)cn3)[C@H]12
[2]
  IC50: 22 nM
[3]
  Cmax: 251 ng/mL
[4]
  AUC(0-t) at 4 h: 509 ng·h/mL

## C[C@H]1OC(=O)[C@@H]2C[C@@H]3CCCC[C@H]3[C@H](/C=C/c3ccc(-c4cnccn4)cn3)[C@H]12
[2]
  IC50: 88 nM

## C[C@H]1OC(=O)[C@@H]2C=C3CCCC[C@H]3[C@H](/C=C/c3ccccn3)[C@H]12
[2]
  IC50: 3600 nM
[1]
  inhibition: 16%

## C[C@H]1OC(=O)[C@@H]2C[C@@H]3CCCC[C@H]3[C@H](/C=C/c3ccc(-c4ccco4)cn3)[C@H]12 (racemic)
[2]
  IC50: 12 nM

## C[C@H]1OC(=O)[C@@H]2C[C@@H]3CCCC[C@H]3[C@H](/C=C/c3ccc(-c4nccs4)cn3)[C@H]12
[2]
  IC50: 47 nM

## Cc1cccc(/C=C/[C@@H]2[C@@H]3[C@@H](C)OC(=O)[C@@H]3C=C3CCCC[C@H]32)n1
[2]
  IC50: 350 nM

## C[C@H]1OC(=O)[C@@H]2C[C@@H]3CCCC[C@H]3[C@H](/C=C/c3ccc(-c4cccs4)cn3)[C@H]12 (racemic)
[2]
  IC50: 16 nM
[3]
  Cmax: 109 ng/mL
[4]
  AUC(0-t) at 4 h: 160 ng·h/mL

## C[C@H]1OC(=O)[C@@H]2C=C3CCCC[C@H]3[C@H](/C=C/c3nc4ccccc4o3)[C@H]12
[1]
  inhibition: 38%

## C[C@H]1OC(=O)[C@@H]2C=C3CCCC[C@H]3[C@H](/C=C/c3cncnc3)[C@H]12
[1]
  inhibition: 5%

## C[C@H]1OC(=O)[C@@H]2C[C@@H]3CCCC[C@H]3[C@H](/C=C/c3ccc(N4CCOCC4)cn3)[C@H]12
[2]
  IC50: 440 nM

## CCc1ccc(/C=C/[C@H]2[C@@H]3CCCC[C@H]3C[C@H]3C(=O)O[C@H](C)[C@@H]23)nc1
[2]
  IC50: 263 nM

## C[C@H]1OC(=O)[C@@H]2C[C@@H]3CCCC[C@H]3[C@H](/C=C/c3ccc(-c4ncc[nH]4)cn3)[C@H]12
[2]
  IC50: 1320 nM

## C[C@H]1OC(=O)[C@@H]2C[C@@H]3CCCC[C@H]3[C@H](/C=C/c3ccc(-c4ccncc4)cn3)[C@H]12
[2]
  IC50: 2140 nM

## C[C@H]1OC(=O)[C@@H]2C[C@@H]3CCCC[C@H]3[C@H](/C=C/c3ccc(-c4ccsc4)cn3)[C@H]12 (racemic)
[2]
  IC50: 11 nM
[3]
  Cmax: 461 ng/mL
[4]
  AUC(0-t) at 4 h: 434 ng·h/mL

## C[C@H]1OC(=O)[C@@H]2C[C@@H]3CCCC[C@H]3[C@H](/C=C/c3ccc(-c4ccc[n+]([O-])c4)cn3)[C@H]12
[2]
  IC50: 207 nM

## C[C@H]1OC(=O)[C@@H]2C[C@@H]3CCCC[C@H]3[C@H](/C=C/c3ccc(-c4cccc(C(F)(F)F)c4)cn3)[C@H]12
Cynomolgus monkey [6]
  Activity: Active
[3]
  Cmax: 1130 ng/mL
[4]
  AUC(0-t) at 4 h: 3010 ng·h/mL

## C[C@H]1OC(=O)[C@@H]2C=C3CCCC[C@H]3[C@H](/C=C/c3cccnc3)[C@H]12
[1]
  inhibition: 11%

## C[C@H]1OC(=O)[C@@H]2C[C@@H]3CCCC[C@H]3[C@H](/C=C/c3ccc(-c4cccnc4)cn3)[C@H]12
[2]
  IC50: 22 nM
Cynomolgus monkey [6]
  inhibition in vivo at 3 mg/kg: 70%
[3]
  Cmax: 1820 ng/mL
Cynomolgus monkey [7]
  Activity: Active
[4]
  AUC(0-t) at 4 h: 4230 ng·h/mL
Cannabinoid receptor 2
  Ki: 13000 nM

## Cc1nc(/C=C/[C@@H]2[C@@H]3[C@@H](C)OC(=O)[C@@H]3C=C3CCCC[C@H]32)ccc1-c1ccccc1
[2]
  IC50: 130 nM

## C[C@H]1OC(=O)[C@@H]2C[C@@H]3CCCC[C@H]3[C@H](/C=C/c3ccc(-c4ccccc4)cn3)[C@H]12
[3]
  Cmax: 223 ng/mL
[4]
  AUC(0-t) at 4 h: 451 ng·h/mL

## C[C@H]1OC(=O)[C@@H]2C=C3CCCC[C@H]3[C@H](/C=C/c3nccs3)[C@H]12
[1]
  inhibition: 14%
